In paper PMC3013619 (Cell host & microbe, 2009):

Target: T1, TgAPT (apicoplast phosphate translocator), TgAPT-N (Toxoplasma gondii, UniProt A7U554)
T1 sequence (A7U554 1-352): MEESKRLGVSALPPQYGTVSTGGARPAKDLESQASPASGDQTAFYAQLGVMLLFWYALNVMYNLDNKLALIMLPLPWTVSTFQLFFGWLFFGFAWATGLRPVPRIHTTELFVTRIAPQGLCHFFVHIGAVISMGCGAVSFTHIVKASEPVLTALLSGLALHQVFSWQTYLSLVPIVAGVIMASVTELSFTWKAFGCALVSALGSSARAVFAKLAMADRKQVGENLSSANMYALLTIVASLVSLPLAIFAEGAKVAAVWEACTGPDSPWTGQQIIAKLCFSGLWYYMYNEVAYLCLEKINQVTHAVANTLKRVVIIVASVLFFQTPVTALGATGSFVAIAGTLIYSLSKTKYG
Experiment: […]-Pi uptake into proteoliposomes, competitive inhibition
Assay type: biochemical
Settings: competitive with Pi; apparent; pH 7.6; reconstituted solubilized yeast membranes

Molecule: O=C(O)[C@H](O)COP(=O)(O)O [3-PGA]
- Kinetic constant ^d / TgAPT: 1.33 ± 0.49 mM

Molecule: C=C(OP(=O)(O)O)C(=O)O [PEP]
- Kinetic constant ^d / TgAPT: 1.65 ± 0.52 mM

Molecule: triose phosphate
- Kinetic constant ^d / TgAPT: 1.63 ± 0.26 mM
